Data on five compounds can be found in US9409887B2, “Mutant-selective EGFR inhibitors and uses thereof” (Celgene Avilomics Research, Inc., priority 2010, dated 2016).

pEC50, pIC50: −log10 of the molar value. Some results are limits rather than exact numbers.

The subject of one assay is H1975 tumor. Description: H1975 tumor in vivo study. Details: species or system nu/nu mice. As to the method:
Female nu/nu mice were implanted with 1×10^7H1975 tumor cells in 50% Matrigel subcutaneously (0.2 ml injection volume) in the flank. Tumor measurements were recorded three times per week. Tumors were pair matched when they reached an average size of 100-150 mg. Group size was 10 mice. Test compound was administered intraperitoneal, 25 mg/kg or 50 mg/kg daily for 21 days. % Tumor inhibition was determined at 15 days and 18 days. Tumor volume was followed until tumors reached 1500 mm^3 or 60 days. Tumor inhibition value for I-1 was >80% for 25 mg/kg at both 15 and 18 days, and >90% for 50 mg/kg at both 15 and 18 days.

Another assay concerns the target WT EGFR (A431 cells) (Homo sapiens (Human), UniProt P00533). As to the kind of experiment: Phospho-EGFR signaling (immunoblotting, 1 hr) in A431 cells. The conditions noted are these: 1 hr compound, EGF stimulated, phospho-EGFR (Y1068). In kind it is cell-based. As to the method:
(§1) A431 human epidermoid carcinoma, H1975 human NSCLC and HCC827 human NSCLC adenocarcinoma cells were obtained from the American Type Culture Center (Manassas, Va.). A431 cells were grown in DMEM (Invitrogen, Carlsbad, Calif.) supplemented with 10% FBS (HyClone, South Logan, Utah) and 1% Penicillin-Streptomycin (P/S, Lonza, Walkersville, Md.). H1975 and HCC827 cells were grown in complete RPMI 1640 (Invitrogen) supplemented with 10% FBS and 1% P/S. All cells were maintained and propagated as monolayer cultures at 37° C. in a humidified 5% CO2 incubator.
(§2) All primary antibodies were obtained from Cell Signaling (Danvers, Mass.) and used at 1:1000. Secondary antibodies were used at 1:10,000. Goat anti-mouse IgG IRDye 800CW antibody was obtained from LiCor Biosciences (Lincoln, Nebr.) and goat anti-rabbit IgG Alexa Fluor 680 was obtained from Invitrogen.
(§3) Cells were grown in 12-well plates (Corning, Coring, N.Y.) to 90% confluence and then incubated in low-serum (0.1% FBS) media for 16-18 hr. […]
(§4) Lysate protein concentrations were determined by BCA Assay (Pierce, Rockford, Ill.) and 50 ug of each lysate was separated by 4-12% gradient SDS-PAGE (Invitrogen), transferred to nitrocellulose membrane (Biorad, Hercules, Calif.) and probed with specific antibodies. Phospho-protein signals were quantitated using Odyssey Infrared Imaging (Li-Cor Biosciences). […]
Background: Immunoblotting shows a protein as a band on a membrane.

For assay [1], the target named is EGFR delE746-A750 mutation (HCC827 cells) (Homo sapiens (Human), UniProt P00533, DEL746-750). As to the kind of experiment: Phospho-EGFR signaling (immunoblotting, 1 hr) in HCC827 cells. It counts as cell-based. As to the method: as §1, §2, §3, §4
In a further assay the target is EGFR-T790M/L858R (Homo sapiens (Human), UniProt P00533, L858R/T790M). As to the kind of experiment: Omnia biochemical assay, EGFR (T790M/L858R) active enzyme. The following applies: for pIC50: [EGFR-T790M/L858R]=2.5 nM, [ATP]=20 uM, 30 min pre-incubation; for Ratio WT/mutant: biochemical IC50, WT EGFR vs EGFR (T790M/L858R). From the text:
(§5) Omnia Assay Protocol for Potency Assessment Against EGFR (WT) and EGFR (T790M/L858R) Active Enzymes
(§6) Below describes the biochemical assay protocol using EGFR-WT and EGFR-T790M/L858R.
(§7) The mechanics of the assay platform are best described by the vendor (Invitrogen, Carlsbad, Calif.) on their website at the following URL: www.invitrogen.com/content.cfm?pageid=11338 or www.invitrogen.com/site/us/en/home/Pro ducts-and-Services/Applications/Drug-Discovery/Target-and-Lead-Identification-and-Validation/KinaseBiology/KB-Misc/Biochemical-Assays/Omnia-Kinase-Assays.html.
(§8) Briefly, 10× stocks of EGFR-WT (PV3872) from Invitrogen and EGFR-T790M/L858R (40350) from BPS Bioscience, San Diego, Calif., 1.13×ATP (AS001A) and appropriate Tyr-Sox conjugated peptide substrates (KCZ1001) were prepared in 1× kinase reaction buffer consisting of 20 mM Tris, pH 7.5, 5 mM MgCl2, 1 mM EGTA, 5 mM β-glycerophosphate, 5% glycerol (10× stock, KB002A) and 0.2 mM DTT (DS001A). 5 μL of each enzyme were pre-incubated in a Corning (#3574) 384-well, white, non-binding surface microtiter plate (Corning, N.Y.) for 30 min. at 25° C. with a 0.5 μL volume of 50% DMSO and serially diluted compounds prepared in 50% DMSO. Kinase reactions were started with the addition of 45 μL of the ATP/Tyr-Sox peptide substrate mix and monitored every 71 seconds for 60 minutes at λex360/λem485 in a Synergy^4 plate reader from BioTek (Winooski, Vt.). At the conclusion of each assay, progress curves from each well were examined for linear reaction kinetics and fit statistics (R^2, 95% confidence interval, absolute sum of squares). Initial velocity (0 minutes to ˜30 minutes) from each reaction was determined from the slope of a plot of relative fluorescence units vs time (minutes) and then plotted against inhibitor concentration to estimate IC50 from log [Inhibitor] vs Response, Variable Slope model in GraphPad Prism from GraphPad Software (San Diego, Calif.).
(§9) [EGFR-WT]=5 nM, [ATP]=15 uM, [Y12-Sox]=5 uM (ATP KMapp˜12 uM); and [EGFR-T790M/L858R]=2.5 nM, [ATP]=20 uM, [Y12-Sox]=5 uM (ATP KMapp˜20 uM).

The next assay has as its system WT-EGFR A431 cells. Description: Cell proliferation (CellTiter Glo, 72 hr) in A431 cells. The conditions noted are these: Homo sapiens, A-431. It counts as cell-based. As to the method: as §1
(§10) Cells were plated in Growth Media supplemented with 5% FBS and 1% P/S at a density of 3,000 cells per well in 96 well tissue culture plates (Corning). Cells were allowed to settle down for 4 hr and then treated with 5, 1.25, 0.31, 0.078, 0.020 or 0.005 μM test compound for 72 hr. Cell viability was determined by CellTiter Glo (Promega, Madison, Wis.) and results were converted to cell numbers using a standard curve. Growth inhibition (GI50) values were determined by Graph Pad Prism.
(In general: Cellular ATP, detected with luciferase, serves as a proxy for viable cell number.)

Assay [2] addresses EGFR double mutation L858R/T790M (H1975 cells) (Homo sapiens (Human), UniProt P00533, L858R/T790M). As to the kind of experiment: Phospho-EGFR signaling (immunoblotting, 1 hr) in H1975 cells. In kind it is cell-based. The following applies: for pEC50: H1975 cells, 1 hr compound, phospho-EGFR (Y1068); for Ratio WT/mutant (H1975): signaling EC50, WT EGFR (A431) vs H1975. As to the method:
as §1, §2
Cells were grown in 12-well plates (Corning, Coring, N.Y.) to 90% confluence and then incubated in low-serum (0.1% FBS) media for 16-18 hr. Cells were then treated with 5, 1.25, 0.31, 0.078, 0.020 or 0.005 μM test compound in low-serum (0.1% FBS) media for 1 hr. A431 cells were then stimulated with 50 ng/ml EGF (Peprotech, Rocky Hill, N.J.) for 15 min. After treatment, cell monolayers were washed with cold PBS (Invitrogen) and immediately lysed by scrapping into 60 uL cold Cell Extraction Buffer (Invitrogen) supplemented with Complete Protease inhibitors (Roche, Indianapolis, Ind.) and PhosphoSTOP (Roche) phosphatase inhibitors.
Lysate protein concentrations were determined by BCA Assay (Pierce, Rockford, Ill.) and 50 ug of each lysate was separated by 4-12% gradient SDS-PAGE (Invitrogen), transferred to nitrocellulose membrane (Biorad, Hercules, Calif.) and probed with specific antibodies. Phospho-protein signals were quantitated using Odyssey Infrared Imaging (Li-Cor Biosciences).
To assess phosphor-EGFR signaling, blots were probed with rabbit anti-Phospho-EGFR (Y1068) and mouse total anti-EGFR antibodies. Phospho-EGFR signal was normalized to total EGFR expression for each sample. Results are indicated as % DMSO control. Normalized data was fitted using a sigmoidal curve analysis program (Graph Pad Prism version 5) with variable Hill slope to determine the EC50 values.
The compound numbers recited in Table 3 correspond to the compound numbers in Table 1.

Assay [3] deals with H1975 (double mutation L858R/T790M) cells. As to the kind of experiment: Cell proliferation (CellTiter Glo, 72 hr) in H1975 cells. In kind it is cell-based, human. The following applies: for GI50: Homo sapiens, NCI-H1975, H1975 cells, 72 hr; for Ratio WT/mutant (H1975): proliferation GI50, WT EGFR (A431) vs H1975. As to the method:
as §1, §10

The next assay addresses EGFR-WT (Homo sapiens (Human), UniProt P00533). Description: Omnia biochemical assay, EGFR (WT) active enzyme. The following applies: [EGFR-WT]=5 nM, [ATP]=15 uM, 30 min pre-incubation.
Text: as §5, §6, §7, §8, §9

Assay [4] concerns HCC827 (delE746-A750 deletion mutation) cells. As to the kind of experiment: Cell proliferation (CellTiter Glo, 72 hr) in HCC827 cells. The following applies: for GI50: Homo sapiens, HCC827 cells, 72 hr; for Ratio WT/mutant (HCC827): proliferation GI50, WT EGFR (A431) vs HCC827. It counts as cell-based, human. As to the method: as §1, §10

For the compound `C=CC(=O)Nc1cccc(Nc2nc(Nc3ccc(NC4CN(CCF)C4)cc3OC)ncc2C(F)(F)F)c1` [Compound I-1, N-(3-(2-(4-(1-(2-fluoroethyl)azetidin-3-ylamino)-2-methoxyphenylamino)-5-(trifluoromethyl)pyrimidin-4-ylamino)phenyl)acrylamide], the Tumor inhibition value in the assay on H1975 tumor (25 mg/kg intraperitoneal daily, at 15 days) is given as over 80%; in the assay on H1975 tumor (25 mg/kg intraperitoneal daily, at 18 days) it was over 80%; in the assay with H1975 tumor (50 mg/kg intraperitoneal daily, at 15 days) it was over 90%; in the assay on H1975 tumor (50 mg/kg intraperitoneal daily, at 18 days), over 90%. Further, the pEC50 (commonly the negative decadic logarithm of the EC50, by convention in mol/L) was under 6.00 on WT EGFR (A431 cells); 6.30 to 7.00 in assay [1] (HCC827 cells, 1 hr compound, phospho-EGFR (Y1068)); 7.00 to 8.00 in [2]. The “Ratio WT/mutant (HCC827)” value in [1] (signaling EC50, WT EGFR (A431) vs HCC827) is given as over 10; in assay [4] it was over 10. Besides, the pIC50 (in general, −log10 of the IC50, conventionally taken in molar units) is over 9.00 on EGFR-T790M/L858R and 8.00 to 9.00 on EGFR-WT. Also, the “Ratio WT/mutant” value at EGFR-T790M/L858R is given as over 1. The GI50 (as a rule, the concentration at which growth is held to half of that of the control) with WT-EGFR A431 cells is 500 to 1000 nM; in [3], 10 to 100 nM; in assay [4], 10 to 100 nM. Moreover, the “Ratio WT/mutant (H1975)” value in [2] was over 35; in assay [3] it was over 10.

Regarding `C=CC(=O)Nc1cccc(Nc2nc(Nc3ccc(NC4CN(C(=O)OC(C)(C)C)C4)cc3OC)ncc2C(F)(F)F)c1` [Compound I-3, tert-butyl 3-(4-(4-(3-acrylamidophenylamino)-5-(trifluoromethyl)pyrimidin-2-ylamino)-3-methoxyphenylamino)azetidine-1-carboxylate], the pEC50 at WT EGFR (A431 cells) is under 6.00; in [2], 6.30 to 7.00. The pIC50 at EGFR-T790M/L858R was 8.00 to 9.00; on EGFR-WT, 6.52 to 7.00. Besides, the “Ratio WT/mutant” value at EGFR-T790M/L858R is reported as over 50. The concentration for 50% growth inhibition (GI50) in the assay with WT-EGFR A431 cells was over 1000 nM; in [3] it was 100 to 500 nM; in assay [4] it was 10 to 100 nM. Further, the “Ratio WT/mutant (H1975)” value in assay [2] was over 10; in assay [3], over 5. Moreover, the “Ratio WT/mutant (HCC827)” value in assay [4] is over 20.

Turning to `C=CC(=O)Nc1cccc(Oc2nc(Nc3ccc(NC(C)C)cc3OC)ncc2Cl)c1` [Compound I-4, N-(3-(5-chloro-2-(4-(isopropylamino)-2-methoxyphenylamino)pyrimidin-4-yloxy)phenyl)acrylamide], on EGFR-T790M/L858R, the negative-log IC50 (pIC50) is 8.00 to 9.00 and the “Ratio WT/mutant” value was over 25. The compound further came in with a GI50 with WT-EGFR A431 cells of over 1000 nM. Further, in assay [3], the GI50 was in the range of 500 to 1000 nM and the “Ratio WT/mutant (H1975)” value is listed as over 1. The pIC50 at EGFR-WT is 7.00 to 7.52. In assay [4], the GI50 is 100 to 500 nM and the “Ratio WT/mutant (HCC827)” value is given as over 35.

As for `C=CC(=O)Nc1cccc(Nc2nc(Nc3ccc(NC(C)C)cc3OC)ncc2C(F)(F)F)c1` [Compound I-5, N-(3-(2-(4-(isopropylamino)-2-methoxyphenylamino)-5-(trifluoromethyl)pyrimidin-4-ylamino)phenyl)acrylamide], at EGFR-T790M/L858R, the pIC50 was over 9.00 and the “Ratio WT/mutant” value was over 20. The GI50 in the assay on WT-EGFR A431 cells is 500 to 1000 nM. For the same compound, in assay [3], the GI50 was in the range of 100 to 500 nM and the “Ratio WT/mutant (H1975)” value is reported as over 1. Also, the pIC50 at EGFR-WT was 7.52 to 8.00. For the same compound, in [4], the GI50 was in the range of 100 to 500 nM and the “Ratio WT/mutant (HCC827)” value is on record as over 5.

Take `C=CC(=O)Nc1cccc(Nc2nc(Nc3ccc(NC4CN(C(C)=O)C4)cc3OC)ncc2C(F)(F)F)c1` [Compound I-2, N-(3-(2-(4-(1-acetylazetidin-3-ylamino)-2-methoxyphenylamino)-5-(trifluoromethyl)pyrimidin-4-ylamino)phenyl)acrylamide]: on EGFR-T790M/L858R, the negative logarithm of the IC50 (pIC50) is over 9.00 and the “Ratio WT/mutant” value is reported as over 15. In the assay on WT-EGFR A431 cells, this compound yielded a GI50 of over 1000 nM. In assay [3], the GI50 is 100 to 500 nM and the “Ratio WT/mutant (H1975)” value is over 5. At EGFR-WT, the pIC50 was 8.00 to 9.00. Further, in assay [4], the GI50 fell in the range of 100 to 500 nM and the “Ratio WT/mutant (HCC827)” value is reported as over 15.
